Laboratory results: publication PMC3362725, “An open-label, phase 1 study evaluating safety, tolerability, and pharmacokinetics of linifanib (ABT-869) in Japanese patients with solid tumors” (Cancer Chemotherapy and Pharmacology, 2012)

Experiment: Safety and tolerability: adverse events per CTCAE v3, dose-limiting toxicity, phase 1 study
Type: in vivo, human (Japanese patients with solid tumors)
Protocol: A standard 3 + 3 design determined the dose level assignment. Patients were assigned to one of four sequential dose cohorts of once-a-day dose regimen of oral linifanib: 0.05, 0.10, 0.20, or 0.25 mg/kg, administered in the morning. […] Dose-limiting toxicity (DLT) was defined as Grade 4 neutropenia lasting >7 days, Grade 4 thrombocytopenia or decreased hemoglobin, Grade 3 or greater thrombocytopenia (if blood transfusion was required), febrile neutropenia, non-hematological toxicity except for manageable nausea, vomiting, anorexia, diarrhea, constipation or electrolyte abnormality, or a toxicity that required suspension of study drug for >7 days.
Patients self-administered linifanib once daily, on a 21-day cycle after fasting, and treatment continued until disease progression or intolerable toxicity. […] The initial oral dose, 2.5–25.0 mg in increments of 2.5 mg, was determined by the patients’ weights. […] The dose was reduced by 5.0 mg for patients ≥86 kg in the 0.10 mg/kg cohort, for patients in the 0.20 mg/kg cohort who were ≥81 kg at the first reduction and 61–80 and ≥96 kg at the 2nd reduction, and for patients in the 0.25 mg/kg cohort who were ≥66 kg at the first reduction and ≥86 kg at the second reduction. Patients were discontinued if they required dose reduction, specified by cohort: Any reduction (0.05 mg/kg cohort); >1 reduction (0.10 mg/kg cohort, and patients ≤31 kg in the 0.20 mg/kg cohort with an initial 5 mg dose); >2 reductions (0.25 mg/kg cohort, and patients ≥32 kg in the 0.20 mg/kg cohort with an initial ≥7.5 mg dose).
Baseline evaluations included physical examination, body weight, vital signs, 12-lead electrocardiogram, ECOG PS assessment, pregnancy test, laboratory tests, and multiple-gated acquisition scan/echocardiogram. Tumor response and/or disease progression was assessed by computerized tomography (CT) scan or magnetic resonance imaging (MRI) per RECIST [20] at screening and on Day (D) 1 of every second cycle prior to the subsequent treatment period, until tumor progression or until final visit. Complete response and partial response (PR) were defined according to RECIST [20]; objective response rate (ORR) was defined as the proportion of patients with best response of PR or CR among the study population. Safety assessments included laboratory test results and adverse events (AEs), which were graded according to CTCAE v3 [18] and coded by medical dictionary of regulatory activities (MedDRA) 1.0.

Cc1ccc(F)c(NC(=O)Nc2ccc(-c3cccc4[nH]nc(N)c34)cc2)c1 [linifanib, N-(4-(3-amino-1H-indazol-4-yl)phenyl)-N’-(2-fluoro-5-methylphenyl)urea]
Grade 3 linifanib-related AEs (0.05 mg/kg dose): no Grade 3 linifanib-related AEs | ALT increased, linifanib-related AE, patients (0.05 mg/kg n = 3, G1): 1 | AST increased, linifanib-related AE, patients (0.05 mg/kg n = 3, G1): 1 | Anorexia, linifanib-related AE, patients (0.05 mg/kg n = 3, G1): 1 | Blood ALKP increased, linifanib-related AE, patients (0.05 mg/kg n = 3, G1): 1 | Blood TG increased, linifanib-related AE, patients (0.05 mg/kg n = 3, G1): 1 | Blood cholesterol increased, linifanib-related AE, patients (0.05 mg/kg n = 3, G1): 2 | Blood urine present, linifanib-related AE, patients (0.05 mg/kg n = 3, G1): 1 | Diarrhea, linifanib-related AE, patients (0.05 mg/kg n = 3, G1): 1 | Hypertension, linifanib-related AE, patients (0.05 mg/kg n = 3, G1): 1 | Neutropenia, linifanib-related AE, patients (0.05 mg/kg n = 3, G1): 2 | Rash, linifanib-related AE, patients (0.05 mg/kg n = 3, G1): 1 | Weight decreased, linifanib-related AE, patients (0.05 mg/kg n = 3, G1): 2 | Blood ALKP increased, linifanib-related AE, patients (0.05 mg/kg n = 3, G2): 1 | Hypertension, linifanib-related AE, patients (0.05 mg/kg n = 3, G2): 2 | dose-limiting toxicity observed (0.10 mg/kg cohort, one patient): Grade 3 ALT increase | Grade 3 linifanib-related AEs (0.10 mg/kg dose): three | ALT increased, linifanib-related AE, patients (0.10 mg/kg n = 6, G1): 2 | AST increased, linifanib-related AE, patients (0.10 mg/kg n = 6, G1): 4 | Anorexia, linifanib-related AE, patients (0.10 mg/kg n = 6, G1): 2 | Blood ALKP increased, linifanib-related AE, patients (0.10 mg/kg n = 6, G1): 1 | Blood TG increased, linifanib-related AE, patients (0.10 mg/kg n = 6, G1): 3 | Blood TSH increased, linifanib-related AE, patients (0.10 mg/kg n = 6, G1): 3 | Blood cholesterol increased, linifanib-related AE, patients (0.10 mg/kg n = 6, G1): 3 | Blood urine present, linifanib-related AE, patients (0.10 mg/kg n = 6, G1): 2 | Diarrhea, linifanib-related AE, patients (0.10 mg/kg n = 6, G1): 3 | Fatigue, linifanib-related AE, patients (0.10 mg/kg n = 6, G1): 1 | GGT increased, linifanib-related AE, patients (0.10 mg/kg n = 6, G1): 3 | Leukopenia, linifanib-related AE, patients (0.10 mg/kg n = 6, G1): 2 | Neutropenia, linifanib-related AE, patients (0.10 mg/kg n = 6, G1): 1 | Proteinuria, linifanib-related AE, patients (0.10 mg/kg n = 6, G1): 1 | Rash, linifanib-related AE, patients (0.10 mg/kg n = 6, G1): 3 | Thrombocytopenia, linifanib-related AE, patients (0.10 mg/kg n = 6, G1): 1 | Weight decreased, linifanib-related AE, patients (0.10 mg/kg n = 6, G1): 2 | Blood TG increased, linifanib-related AE, patients (0.10 mg/kg n = 6, G2): 1 | Fatigue, linifanib-related AE, patients (0.10 mg/kg n = 6, G2): 1 | GGT increased, linifanib-related AE, patients (0.10 mg/kg n = 6, G2): 1 | Hypertension, linifanib-related AE, patients (0.10 mg/kg n = 6, G2): 5 | Leukopenia, linifanib-related AE, patients (0.10 mg/kg n = 6, G2): 1 | Palmar-plantar erythrodysaesthesia, linifanib-related AE, patients (0.10 mg/kg n = 6, G2): 3 | Proteinuria, linifanib-related AE, patients (0.10 mg/kg n = 6, G2): 2 | Thrombocytopenia, linifanib-related AE, patients (0.10 mg/kg n = 6, G2): 1 | Weight decreased, linifanib-related AE, patients (0.10 mg/kg n = 6, G2): 1 | Neutropenia, linifanib-related AE, patients (0.10 mg/kg n = 6, G3): 1 | Proteinuria, linifanib-related AE, patients (0.10 mg/kg n = 6, G3): 1 | ALT increased, linifanib-related AE, patients (0.20 mg/kg n = 3, G1): 2 | AST increased, linifanib-related AE, patients (0.20 mg/kg n = 3, G1): 2 | Anorexia, linifanib-related AE, patients (0.20 mg/kg n = 3, G1): 1 | Blood ALKP increased, linifanib-related AE, patients (0.20 mg/kg n = 3, G1): 1 | Blood TG increased, linifanib-related AE, patients (0.20 mg/kg n = 3, G1): 3 | Blood TSH increased, linifanib-related AE, patients (0.20 mg/kg n = 3, G1): 3 | Blood cholesterol increased, linifanib-related AE, patients (0.20 mg/kg n = 3, G1): 2 | Blood urine present, linifanib-related AE, patients (0.20 mg/kg n = 3, G1): 2 | Diarrhea, linifanib-related AE, patients (0.20 mg/kg n = 3, G1): 1 | Fatigue, linifanib-related AE, patients (0.20 mg/kg n = 3, G1): 1 | GGT increased, linifanib-related AE, patients (0.20 mg/kg n = 3, G1): 1 | Leukopenia, linifanib-related AE, patients (0.20 mg/kg n = 3, G1): 2 | Rash, linifanib-related AE, patients (0.20 mg/kg n = 3, G1): 1 | T-wave abnormality, linifanib-related AE, patients (0.20 mg/kg n = 3, G1): 1 | Weight decreased, linifanib-related AE, patients (0.20 mg/kg n = 3, G1): 1 | Anorexia, linifanib-related AE, patients (0.20 mg/kg n = 3, G2): 1 | Blood cholesterol increased, linifanib-related AE, patients (0.20 mg/kg n = 3, G2): 1 | Fatigue, linifanib-related AE, patients (0.20 mg/kg n = 3, G2): 1 | Hypertension, linifanib-related AE, patients (0.20 mg/kg n = 3, G2): 2
